Where “and” joins values, the source holds several entries; their conditions need not be identical. Equal values may be shown once. Where a name gives a salt, the structure may show the parent alone. Marks after values point to notes of the source that are not given here.
Tests used:
[1] = molecular target: T1, EphrinB2-EphB4 (Homo sapiens, UniProt P54760); experiment: Octet 80 sec association/500 sec dissociation, immobilized human EphrinB2-Fc binding to soluble human EphB4-His; conditions: for EphB4 Inhibition Percent, Inhibition of Association ONLY: at 3.2 μM and 80 seconds; for EphB4 Inhibition Percent, Inhibition of Association ONLY / EphB4 Inhibition Percent, Inhibition of Association-Dissociation: immobilized human EphrinB2, 25 nM soluble human EphB4; for EphB4 Inhibition Percent, Inhibition of Association-Dissociation: at 3.2 μM and 580 seconds
T1 construct: soluble human EphB1-His, EphB2-His, and EphB4-His ectodomains; commercially available human EphrinB1-Fc (EB1), EphrinB2-Fc (EB2), and EphrinB3-Fc (EB3) ectodomain proteins; purchased
T1 sequence (P54760 16-539 limits assumed): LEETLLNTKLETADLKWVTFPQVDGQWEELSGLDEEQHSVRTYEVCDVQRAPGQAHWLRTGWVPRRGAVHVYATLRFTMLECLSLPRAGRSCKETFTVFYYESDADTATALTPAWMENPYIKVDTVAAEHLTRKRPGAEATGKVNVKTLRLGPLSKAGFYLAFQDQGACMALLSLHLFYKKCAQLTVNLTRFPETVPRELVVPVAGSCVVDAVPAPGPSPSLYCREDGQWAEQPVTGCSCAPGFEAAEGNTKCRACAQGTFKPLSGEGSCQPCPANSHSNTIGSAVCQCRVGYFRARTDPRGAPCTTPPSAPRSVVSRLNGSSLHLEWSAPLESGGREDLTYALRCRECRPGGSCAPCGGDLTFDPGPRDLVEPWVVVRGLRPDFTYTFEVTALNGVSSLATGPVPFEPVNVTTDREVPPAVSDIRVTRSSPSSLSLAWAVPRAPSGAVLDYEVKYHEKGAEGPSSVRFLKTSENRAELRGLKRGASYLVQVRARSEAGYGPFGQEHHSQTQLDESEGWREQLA
Procedure: (§1) In another experiment, whether certain A20 analogs might have specificity for different Eph receptors was tested. An Octet RED384 system was used to obtain biophysical ON-OFF binding data (association-dissociation) for the three different human EphrinB2-EphB1, EphrinB2-EphB2, and EphrinB2-EphB4 protein-protein interactions and to assess the effect of A20 chemicals on the binding kinetics.
(§2) FIGS. 72A-72C show three example Octet sensorgram response traces for the immobilized human EphrinB2 ectodomain protein binding to soluble forms of the human EphB1, EphB2, and EphB4 ectodomain proteins, in the absence or presence of an A20 chemical (buffer conditions are always PBSTD:PBS with 0.05% Tween-20, 1% DMSO, and +/− indicated chemical). After loading EphrinB2-Fc protein to Octet AHC biosensors, washing, and obtaining stable baseline measurements in the appropriate PBSTD (either with or without indicated chemical), the sensors are placed in its buffer that also contains the indicated soluble EphB protein for the association step (0-80″), and then returned to its buffer for the dissociation step (81″-580″). In each figure (FIGS. 72A-72C), a sensorgram run using 10 μM of the 2×HCl salt form of A20-I is compared to the no compound control run to exemplify the maximum level of reduced response signal typically obtained with a potent A20 chemical.
(§3) Because the response levels during the dissociation step plateau for the EphrinB2-EphB2 and EphrinB2-EphB1 interactions by the first 80″, AUCs were also calculated for run data encompassing the first 160″ of each experiment to account for both the 80″ association data (red asterisks) and the first 80″ of dissociation data (marked by green line and asterisks).
(§4) The selectivity of another A20 analog (a 3×HCL salt form of compound BQPB4) in comparison to previously tested compound, A20-1, was tested as described in Example 27 above.
(§5) Further to the experiments listed above, a series of dose-response experiments were conducted to determine the IC50 of a selected A20 chemical (A20-1) on the kinetics of human EphrinB2 ligand ectodomain protein binding to its cognate human EphB1, EphB2, and EphB4 receptor ectodomain proteins. FIG. 74A-74C are representative sensorgrams showing the effect of 0, 0.1, 0.2, 0.4, 0.8, 1.6, and 3.2 μM, concentrations of the 2×HCl salt of A20-I along with a 10 μM max standard (also A20-1) on three different Ephrin-EphB interactions (e.g., EphB1 in FIG. 74A, EphB2 in FIG. 74B and EphB4 in FIG. 74C). […] Additional IC50 values were determined at specific timepoints, at 75″ into the association step and at 55″ into the dissociation step (135″).
(§6) All absolute and relative IC50 values are provided in the Table 6 below, where absolute are based off the full binding sensorgram traces, and relative are based off of the max control traces.
(§7) In another experiment, the % inhibition for various A20 analog chemicals against the three different EphrinB2-EphB protein interactions was determined. Specifically, the percent inhibition for immobilized human EphrinB2-Fc binding to 25 nM soluble human EphB1-His (FIG. 76A, enlarged in FIG. 76D), EphB2-His (FIG. 76B, enlarged in FIG. 76E), and EphB4-His (FIG. 76C, enlarged in FIG. 76F) with 3511-I, 8009-9255, QTM-Br, A19, A19-NO2, and IM (all at 3.2 μM) was determined.

[2] = molecular target: T2, EphrinB2-EphB2 (Homo sapiens, UniProt P29323); experiment: Octet 80 sec association/500 sec dissociation, immobilized human EphrinB2-Fc binding to soluble human EphB2-His; conditions: for EphB2 Inhibition Percent, Inhibition of Association ONLY: at 3.2 μM and 80 seconds; for EphB2 Inhibition Percent, Inhibition of Association ONLY / EphB2 Inhibition Percent, Inhibition of Association-Dissociation: immobilized human EphrinB2, 25 nM soluble human EphB2; for EphB2 Inhibition Percent, Inhibition of Association-Dissociation: at 3.2 μM and 580 seconds; for % Inhibition: Association + Dissociation (160 sec) / % Inhibition: Association ONLY (80 sec): EphB2, 25 nM EphB2, 3.2 μM compound, A20-I as max control, 0* = less than 0, no inhibition
T2 construct: soluble human EphB1-His, EphB2-His, and EphB4-His ectodomains; commercially available human EphrinB1-Fc (EB1), EphrinB2-Fc (EB2), and EphrinB3-Fc (EB3) ectodomain proteins; purchased
T2 sequence (P29323 19-543 limits assumed): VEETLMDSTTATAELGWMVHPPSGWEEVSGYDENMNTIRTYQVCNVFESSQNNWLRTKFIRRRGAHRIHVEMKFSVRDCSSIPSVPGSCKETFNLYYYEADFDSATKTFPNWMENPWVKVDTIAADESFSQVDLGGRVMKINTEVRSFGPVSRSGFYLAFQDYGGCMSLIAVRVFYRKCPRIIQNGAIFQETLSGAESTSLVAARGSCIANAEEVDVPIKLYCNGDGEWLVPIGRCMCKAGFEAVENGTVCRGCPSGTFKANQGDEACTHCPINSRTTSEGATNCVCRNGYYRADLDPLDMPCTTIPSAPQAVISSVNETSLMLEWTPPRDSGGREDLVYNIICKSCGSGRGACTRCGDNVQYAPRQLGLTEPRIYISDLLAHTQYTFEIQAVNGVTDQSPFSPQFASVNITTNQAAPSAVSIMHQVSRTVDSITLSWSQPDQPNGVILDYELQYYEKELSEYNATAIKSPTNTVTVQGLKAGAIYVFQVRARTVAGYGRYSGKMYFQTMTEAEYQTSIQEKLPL
Procedure: as §1, §2, §3, §4, §5, §6, §7

[3] = molecular target: T3, EphrinB2-EphB1 (Homo sapiens, UniProt P54762); experiment: Octet 80 sec association/500 sec dissociation, immobilized human EphrinB2-Fc binding to soluble human EphB1-His; conditions: for EphB1 Inhibition Percent, Inhibition of Association-Dissociation: at 3.2 μM and 580 seconds; for EphB1 Inhibition Percent, Inhibition of Association-Dissociation / EphB1 Inhibition Percent, Inhibition of Association ONLY: immobilized human EphrinB2, 25 nM soluble human EphB1; for EphB1 Inhibition Percent, Inhibition of Association ONLY: at 3.2 μM and 80 seconds
T3 construct: soluble human EphB1-His, EphB2-His, and EphB4-His ectodomains; commercially available human EphrinB1-Fc (EB1), EphrinB2-Fc (EB2), and EphrinB3-Fc (EB3) ectodomain proteins; purchased
T3 sequence (P54762 18-540 limits assumed): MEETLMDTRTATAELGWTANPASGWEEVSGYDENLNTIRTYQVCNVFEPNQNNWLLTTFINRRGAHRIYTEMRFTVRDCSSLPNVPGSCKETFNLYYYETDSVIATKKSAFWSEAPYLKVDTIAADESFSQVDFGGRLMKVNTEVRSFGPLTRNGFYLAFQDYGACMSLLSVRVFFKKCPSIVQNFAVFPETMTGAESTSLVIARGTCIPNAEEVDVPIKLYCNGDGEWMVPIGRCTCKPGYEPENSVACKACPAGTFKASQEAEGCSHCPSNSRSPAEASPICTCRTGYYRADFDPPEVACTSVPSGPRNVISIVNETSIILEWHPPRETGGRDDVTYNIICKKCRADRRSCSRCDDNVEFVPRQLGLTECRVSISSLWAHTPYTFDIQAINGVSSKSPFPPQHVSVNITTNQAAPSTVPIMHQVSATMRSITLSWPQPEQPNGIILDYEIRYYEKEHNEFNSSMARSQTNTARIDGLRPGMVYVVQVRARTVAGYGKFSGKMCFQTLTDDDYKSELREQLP
Procedure: as §1, §2, §3, §4, §5, §6, §7

[4] = listed as A20-1.2xMSA, methanesulfonate
[5] = EphB4, 25 nM EphB4, 3.2 μM compound, A20-I as max control, 0* = less than 0, no inhibition
[6] = EphB1, 25 nM EphB1, 3.2 μM compound, A20-I as max control, 0* = less than 0, no inhibition

Row | EphB1 Inhibition Percent, Inhibition of Association ONLY [3] | SMILES | EphB4 Inhibition Percent, Inhibition of Association ONLY [1] | EphB4 Inhibition Percent, Inhibition of Association-Dissociation [1] | EphB2 Inhibition Percent, Inhibition of Association ONLY [2] | EphB2 Inhibition Percent, Inhibition of Association-Dissociation [2] | EphB1 Inhibition Percent, Inhibition of Association-Dissociation [3] | also measured
1 | – | Oc1ccc(CN2CCN(Cc3ccc(C(F)(F)F)cc3)CC2)c2cccnc12 [Compound 49, 8-hydroxy-5-((4-(4-(trifluoromethyl)benzyl)piperazin-1-ium-1-yl)methyl)quinolin-1-ium chloride] | 0*/0*% | 0% and 2.8% | 21.3% and 24.9% | 46.2% and 36.2% | 19.8% and 39.0% | –
2 | 39.6% | COc1ccccc1N1CCN(Cc2cc(I)c(O)c3ncccc23)CC1 [Compound 71-A, 7-iodo-5-((4-(2-methoxyphenyl)piperazin-1-yl)methyl)quinolin-8-ol dihydrochloride] | 17.5% | 35.6% | 58.7% | 73.2% | 52.3% | –
3 | 21.4% | Oc1ccc(CN2CCN(C3CCCC3)CC2)c2cccnc12 [Compound 83, 5-((4-cyclopentylpiperazin-1-yl)methyl)quinolin-8-ol] | 0.5% | 0.5% | 20.9% | 21.2% | 23.6% | –
4 | – | Oc1c(I)cc(CN2CCOCC2)c2cccnc12 [Compound 89, 4-((8-hydroxy-7-iodoquinolin-1-ium-5-yl)methyl)morpholin-4-ium methanesulfonate] | – | – | – | – | – | EphB4 Inhibition Percent, Inhibition of Association ONLY ([1]; methanesulfonate): 1.7%; EphB4 Inhibition Percent, Inhibition of Association-Dissociation ([1]; methanesulfonate): 25.4%; % Inhibition: Association + Dissociation (160 sec) [2, 4]: 74.6%; % Inhibition: Association ONLY (80 sec) [2, 4]: 55.1%; EphB2 Inhibition Percent, Inhibition of Association ONLY ([2]; methanesulfonate): 55.1%; EphB2 Inhibition Percent, Inhibition of Association-Dissociation ([2]; methanesulfonate): 74.6%; % Inhibition: Association + Dissociation (160 sec) ([3]; EphB1, 25 nM EphB1, 3.2 μM compound, A20-I as max control, 0* = less than 0, no inhibition, listed as A20-1.2xMSA, methanesulfonate): 46.3%; EphB1 Inhibition Percent, Inhibition of Association ONLY ([3]; methanesulfonate): 28.4%; EphB1 Inhibition Percent, Inhibition of Association-Dissociation ([3]; methanesulfonate): 46.3%

Row | SMILES | EphB1 Inhibition Percent, Inhibition of Association ONLY [3] | EphB4 Inhibition Percent, Inhibition of Association ONLY [1] | EphB4 Inhibition Percent, Inhibition of Association-Dissociation [1] | EphB2 Inhibition Percent, Inhibition of Association ONLY [2] | EphB2 Inhibition Percent, Inhibition of Association-Dissociation [2] | EphB1 Inhibition Percent, Inhibition of Association-Dissociation [3] | also measured
5 | Oc1cccc2cccnc12 [Compound 102, 8-Hydroxyquinoline, reference compound] | 0*% | 0*% | 0*% | 0*% | 0*% | 0*% | % Inhibition: Association + Dissociation (160 sec) [1, 5]: 0* %; % Inhibition: Association ONLY (80 sec) [1, 5]: 0* %; inhibition of EphrinB2-EphB interactions ([2]; 3.2 μM, EphB1, EphB2 and EphB4): unable to disrupt any of the EphrinB2-EphB interactions; % Inhibition: Association + Dissociation (160 sec) [2]: 0* %; % Inhibition: Association ONLY (80 sec) [2]: 0* %; % Inhibition: Association + Dissociation (160 sec) [3, 6]: 0* %; % Inhibition: Association ONLY (80 sec) [3, 6]: 0* %

— patent publication US20260374739A1, “SMALL MOLECULAR WEIGHT CHEMICAL COMPOUND TO ANTAGONIZE EPH-EPHRIN TETRAMERIZATION AND INHIBIT BIDIRECTIONAL SIGNALING” (THE BOARD OF REGENTS OF THE UNIVERSITY OF TEXAS SYSTEM, priority 2022, published 2026)
